Reference: patent publication US11939583B2, “Method of producing autotrophic organisms with altered photorespiration and improved CO2 fixation” (Max-Planck-Gesellschaft zur Förderung der Wissenschaften …, priority 2018, dated 2024)

Tests used:
[1] = target: T1, β-hydroxyaspartate aldolase (BHAA) (Paracoccus denitrificans, UniProt A1B8Z1); assay: Enzyme assay, kinetic parameters of BHAA; assay type: biochemical, Paracoccus denitrificans DSM 413; details: 30° C., pH 7.5, glycine with 5 mM glyoxylate, glyoxylate with 20 mM glycine
T1 construct: His-tag (N); made in house; host or cells: E. coli BL21 AI
T1 sequence (A1B8Z1 1-387): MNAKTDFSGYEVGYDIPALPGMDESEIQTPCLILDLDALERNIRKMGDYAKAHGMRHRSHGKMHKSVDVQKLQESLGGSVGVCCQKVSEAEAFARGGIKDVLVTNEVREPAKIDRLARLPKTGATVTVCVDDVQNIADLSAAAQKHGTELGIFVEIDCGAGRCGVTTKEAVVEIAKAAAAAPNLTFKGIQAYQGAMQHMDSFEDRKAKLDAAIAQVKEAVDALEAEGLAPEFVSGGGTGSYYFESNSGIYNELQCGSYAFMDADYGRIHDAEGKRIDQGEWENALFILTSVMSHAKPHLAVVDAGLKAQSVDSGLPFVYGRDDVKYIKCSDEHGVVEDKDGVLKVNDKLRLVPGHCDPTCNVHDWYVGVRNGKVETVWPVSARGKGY
Procedure: (§1) In all enzyme assays, the oxidation of NADH or NADPH was followed at 340 nm or 360 nm on a Cary 60 UV-Vis photospectrometer (Agilent, Santa Clara, USA) in quartz cuvettes with a path length of 1 mm or 10 mm (Hellma Optik GmbH, Jena, Germany).
The reaction mixture contained 100 mM potassium phosphate buffer pH 7.5, 0.1 mM PLP, 0.2 mM NADH, 0.5 mM MgCl2, varying amounts of the respective substrates, and 4 nM BHAA. BHAD and ISRed were added in excess as coupling enzymes. […] To determine the kinetic parameters with (2R,3S)-β-hydroxyaspartate as substrate, the same assay mixture was used and GhrA was added in excess as coupling enzyme to convert glyoxylate into glycolate. To determine the kinetic parameters with D-threonine as substrate, the same assay mixture was used and alcohol dehydrogenase from Saccharomyces cerevisiae (Sigma-Aldrich, St. Louis, USA) was added in excess as coupling enzyme to convert acetaldehyde into ethanol.

[2] = target: T2, β-hydroxyaspartate dehydratase (BHAD) (Paracoccus denitrificans, UniProt A1B8Z2); assay: Enzyme assay, kinetic parameters of BHAD; assay type: biochemical, Paracoccus denitrificans DSM 413; details: 30° C., pH 7.5, ISRed as coupling enzyme
T2 construct: His-tag (N); made in house; host or cells: E. coli BL21 AI
Procedure: as §1
The enzyme assay to determine the kinetic parameters of BHAD was performed at 30° C. in a total volume of 300 μl. The reaction mixture contained 100 mM phosphate buffer pH 7.5, 0.1 mM PLP, 0.2 mM NADH, varying amounts of the substrate (2R,35)-β-hydroxyaspartate, and 29 nM BHAD. ISRed was added in excess as coupling enzyme to convert iminosuccinate into L-aspartate. (2R,3S)-β-Hydroxyaspartate was custom-synthesized by NewChem (Newcastle upon Tyne, United Kingdom), and was determined to be >95% pure by NMR analysis.

Pbhc-BhcR complex = assay: Electrophoretic mobility shift assay, effect of glyoxylate on complex formation; assay type: binding, P. denitrificans DSM 413; details: increasing concentrations of glyoxylate (0.01-1 mM), EMSA, FIG. 5
Text: Fluorescently labeled DNA fragments for electrophoretic mobility shift assays (EMSA) were generated by PCR from genomic DNA of P. denitrificans DSM 413. For the Pbhc regulatory region, primers Pbhc_fw and Pbhc_rev-dye were used to generate a 238-bp fragment containing the putative Pbhc promoter. The primers AGAT-Fw and AGAT_rev-dye were used to generate a 255-bp fragment containing a fragment of the AGAT gene as negative controle. Pbhc rev dye and AGAT rev dye were 5′-labelled with the Dyomics 781 fluorescent dye (Microsynth AG, Balgach, Switzerland). Binding reactions between the DNA fragments (0.025 pmol), various amounts of the purified protein BhcR (400x/2,000x/4,000x/10,000x/20,000x/40,000x molar excess), and various concentrations of glyoxylate (0.01/0.05/0.1/0.2/0.5/1 mM final concentration) were performed in buffer A (20 mM potassium phosphate pH 7.0, 1 mM DTT, 5 mM MgCl2, 50 mM KCl, 15 μg mL^−1 bovine serum albumin, 50 μg mL^−1 herring sperm DNA, 5% v/v glycerol, 0.1% Tween20) in a total volume of 20 μL. After incubation of the reaction mixtures at 37° C. for 20 min, the samples were loaded onto a native 5% polyacrylamide gel and electrophoretically separated at 110 V for 60 min. BhcR:DNA-interactions were detected using an Odyssey FC Imaging System (LI-COR Biosciences, Lincoln, USA).

[3] = target: T3, aspartate-glyoxylate aminotransferase (AGAT) (Paracoccus denitrificans, UniProt A1B8Z3); assay: Enzyme assay, kinetic parameters of AGAT; assay type: biochemical, Paracoccus denitrificans DSM 413; details: 30° C., pH 7.5, co-substrate fixed (20 mM L-aspartate, 5 mM glyoxylate, 20 mM oxaloacetate or 30 mM glycine); for Km: read-out: app. KM
T3 construct: His-tag (N); made in house; host or cells: E. coli BL21 AI
T3 sequence (A1B8Z3 1-396): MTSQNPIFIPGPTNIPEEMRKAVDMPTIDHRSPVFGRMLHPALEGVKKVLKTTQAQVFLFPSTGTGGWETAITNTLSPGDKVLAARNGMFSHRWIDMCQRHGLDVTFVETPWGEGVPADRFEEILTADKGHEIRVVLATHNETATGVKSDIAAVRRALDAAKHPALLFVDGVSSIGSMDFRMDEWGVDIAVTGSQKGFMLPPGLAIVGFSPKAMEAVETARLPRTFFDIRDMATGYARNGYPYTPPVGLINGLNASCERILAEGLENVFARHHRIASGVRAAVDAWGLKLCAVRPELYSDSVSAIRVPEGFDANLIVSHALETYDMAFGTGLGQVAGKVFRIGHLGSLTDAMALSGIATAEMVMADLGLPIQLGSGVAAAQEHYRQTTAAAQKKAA
Procedure: as §1
(§2) The enzyme assay to determine the kinetic parameters of AGAT with glyoxylate and L-aspartate as substrates was performed at 30° C. in a total volume of 300 μl. The reaction mixture contained 100 mM potassium phosphate buffer pH 7.5, 0.1 mM PLP, 0.2 mM NADH, varying amounts of the respective substrates, and 32 nM AGAT. Mdh was added in excess as coupling enzyme to convert oxaloacetate into malate. Kinetics for glyoxylate were measured with 20 mM L-aspartate; kinetics for L-aspartate were measured with 5 mM glyoxylate. To determine the kinetic parameters with oxaloacetate and glycine as substrates, the same assay mixture was used and GhrA was added in excess as coupling enzyme to convert glyoxylate into glycolate. […] To determine the kinetic parameters with L-serine or L-glutamate and glyoxylate as substrates, the same assay mixture was used and BHAD, BHAA, and Mdh were added in excess as coupling enzymes. Kinetics for L-serine and L-glutamate were measured with 5 mM glyoxylate.

[4] = system: expression levels of enzymes of the BHAP; assay: Whole-cell shotgun proteomics, glycolate-grown vs. acetate-grown cells; assay type: cell-based, P. denitrificans; details: cells grown on 60 mM glycolate compared to 60 mM acetate, FIG. 4
Procedure: To acquire the proteome of P. denitrificans growing on different carbon sources, 20 mL cultures were grown to mid-exponential phase (OD600 ˜0.5) in minimal medium supplemented with 60 mM acetate or 60 mM glycolate. 4 replicate cultures were grown for each carbon source. Main cultures were inoculated from precultures grown in the same medium in a 1:1,000 dilution. Cultures were harvested by centrifugation at 4,000× g and 4° C. for 15 min. Supernatant was discarded and pellets were washed in 40 mL phosphate buffered saline (PBS; 137 mM NaCl, 2.7 mM KCl, 10 mM Na2HPO4, 1.8 mM KH2PO4, pH 7.4). […] Cell pellets in Eppendorf tubes were snap-frozen in liquid nitrogen and stored at −80° C. until they were used for the preparation of samples for LC-MS analysis and label-free quantification.
For whole cell lysis, cell pellets were first resuspended in 200 μL NH4HCO3 (100 mM supplemented with 5% SDS). […] Protein concentration in samples was determined via Pierce™ BCA assay (Thermo Scientific). […] Peptide mixes were recovered in 2% DMSO and then in 0.5% trifluoracetic acid (TFA) and analyzed via LC-MS on an electrospray ion source-connected Thermo QExactive Plus mass spectrometer (Thermo Scientific). […] Label-free data quantification was performed according to (Nature 2011, 473, 337; Proteomics 2013, 13, 2567; and J Proteome Res 2015, 14, 4472). […]

[5] = target: T4, iminosuccinate reductase (ISRed) (Paracoccus denitrificans, UniProt A1B8Z0); assay: Enzyme assay, apparent kinetic parameters of ISRed; assay type: biochemical, Paracoccus denitrificans DSM 413; details: 30° C.; for Km: pH 7.5, cofactors measured with 2 mM (2R,3S)-β-hydroxyaspartate and BHAD, read-out: app. KM
T4 construct: His-tag (N); made in house; host or cells: E. coli BL21 AI
Procedure: as §1
The enzyme assay to determine the apparent kinetic parameters of ISRed was performed at 30° C. in a total volume of 250 μL. The reaction mixture contained 100 mM potassium phosphate buffer pH 7.5, 0.2 mM NADH, 0.1 mM PLP, varying amounts of (2R,3S)-β-hydroxyaspartate, and appropriate amounts of the enzymes BHAD and ISRed. Kinetics for iminosuccinate were measured with 15 nM ISRed, and appropriate amounts of (2R,3S)-β-hydroxyaspartate and BHAD to generate the desired concentrations of iminosuccinate at the onset of the reaction. Kinetics for NADH and NADPH were measured with 2 mM (2R,3S)-β-hydroxyaspartate, 214 nM BHAD, 28 nM ISRed, and varying amounts of the respective cofactor.

[6] = substrate: NCC(=O)O; assay: purified protein, by the assay type; details: other: enzyme AGAT, 30° C., pH 7.5, co-substrate fixed (20 mM L-aspartate, 5 mM glyoxylate, 20 mM oxaloacetate or 30 mM glycine)
[7] = substrate: N[C@@H](CO)C(=O)O; assay: Enzyme assay, kinetic parameters of AGAT; assay type: biochemical, Paracoccus denitrificans DSM 413; details: other: enzyme AGAT, 30° C., pH 7.5, co-substrate fixed (20 mM L-aspartate, 5 mM glyoxylate, 20 mM oxaloacetate or 30 mM glycine)
Procedure: as §1, §2

[8] = substrate: O=C(O)CC(=O)C(=O)O; assay: Enzyme assay, kinetic parameters of AGAT; assay type: biochemical, Paracoccus denitrificans DSM 413; details: other: enzyme AGAT, 30° C., pH 7.5, co-substrate fixed (20 mM L-aspartate, 5 mM glyoxylate, 20 mM oxaloacetate or 30 mM glycine)
Procedure: as §1, §2

[9] = substrate: O=CC(=O)O; assay: Enzyme assay, kinetic parameters of AGAT; assay type: biochemical, Paracoccus denitrificans DSM 413; details: other: enzyme AGAT, 30° C., pH 7.5, co-substrate fixed (20 mM L-aspartate, 5 mM glyoxylate, 20 mM oxaloacetate or 30 mM glycine)
Procedure: as §1, §2

Question: Which app. kcat [1] does the source give for `N[C@@H](C(=O)O)[C@H](O)C(=O)O` [(2R,3S)-β-hydroxyaspartate] here?
Answer: Its app. kcat is 33.11 ± 1.29 s⁻¹.

Question: What about the Km ([1]; read-out: app. KM) of the same molecule?
Answer: The Km was 280 ± 30 µM.

Question: What about the app. kcat [2] of the same molecule?
Answer: The app. kcat was 35.01 ± 0.82 s⁻¹.

Question: And the Km ([2]; read-out: app. KM)?
Answer: Its Km is 200 ± 20 µM.

Question: `O=CC(=O)O` [Glyoxylate] was tested. Which “effect on binding of BHAR to the promoter region” value (Pbhc-BhcR complex) did it give?
Answer: Its value is “binding was decreased”.

Question: For `N[C@@H](CC(=O)O)C(=O)O` [L-Aspartate], which app. kcat [3] is on record?
Answer: Its app. kcat is 56.36 ± 0.73 s⁻¹.

Question: What about the Km [3] of the same molecule?
Answer: Its Km is 2510 ± 100 µM.

Question: How did the “expression of all four enzymes of the BHAP” value [4] turn out when `O=C(O)CO` [glycolate] was run?
Answer: Its value is “strongly increased expression”.

Question: `N=C(CC(=O)O)C(=O)O` [Iminosuccinate] was tested. Which Km [5] did it give?
Answer: Its Km is 88 ± 10 µM.

Question: And the app. kcat ([5]; pH 7.5, iminosuccinate generated from (2R,3S)-β-hydroxyaspartate by BHAD)?
Answer: The app. kcat was 201.04 ± 10.20 s⁻¹.

Question: With `NC(=O)C1=CN([C@@H]2O[C@H](COP(=O)(O)OP(=O)(O)OC[C@H]3O[C@@H](n4cnc5c(N)ncnc54)[C@H](O)[C@@H]3O)[C@@H](O)[C@H]2O)C=CC1` [NADH] as the molecule, how does the Km [5] read?
Answer: The Km was 23 ± 3 µM.

Question: With `N[C@@H](CCC(=O)O)C(=O)O` [L-Glutamate] as the molecule, how does the app. kcat [3] read?
Answer: The app. kcat was 5.03 ± 0.26 s⁻¹.

Question: What about the Km [3] of the same molecule?
Answer: The Km was 20600 ± 2330 µM.

Question: With NADPH as the molecule, how does the Km [5] read?
Answer: Its Km is 330 ± 50 µM.

B1: aspartate-glyoxylate aminotransferase (AGAT) (Paracoccus denitrificans PD1222) (protein)
chain: T3 sequence (A1B8Z3 1-396)
notes: His-tag (N); made in house; host or cells: E. coli BL21 AI
Question: For B1, which Km [6] is on record?
Answer: Its Km is 9520 ± 400 µM.

Question: What about the kcat [6] of the same molecule?
Answer: Its kcat is 0.76 s⁻¹.

Question: And the kcat/Km [6]?
Answer: Its kcat/Km is 79.7 M⁻¹ s⁻¹.

Question: What about the Km [7] of the same molecule?
Answer: The Km was 2100 ± 240 µM.

Question: And the kcat [7]?
Answer: Its kcat is 8.82 ± 0.31 s⁻¹.

Question: And the kcat/Km [7]?
Answer: Its kcat/Km is 4200 M⁻¹ s⁻¹.

Question: What about the Km [8] of the same molecule?
Answer: The Km was 2900 ± 270 µM.

Question: What about the kcat [8] of the same molecule?
Answer: The kcat was 0.76 ± 0.02 s⁻¹.

Question: What about the kcat/Km [8] of the same molecule?
Answer: The kcat/Km was 262 M⁻¹ s⁻¹.

Question: And the Km [9]?
Answer: The Km was 430 ± 20 µM.

Question: What about the kcat [9] of the same molecule?
Answer: The kcat was 58.1 ± 0.82 s⁻¹.

Question: What about the kcat/Km [9] of the same molecule?
Answer: The kcat/Km was 134000 M⁻¹ s⁻¹.
